Assay results as given in paper PMC6273472, “Design, Synthesis and Biological Evaluation of 6-(2,6-Dichloro-3,5-dimethoxyphenyl)-4-substituted-1H-indazoles as Potent Fibroblast Growth Factor Receptor Inhibitors” (Molecules, 2016).

What was measured:
[1] = system: FGFR2; design: method as in PMID 21936542; settings: molecular level; cited from earlier work
[2] = system: FGFR3; design: method as in PMID 21936542; settings: molecular level; cited from earlier work
[3] = system: FGFR4; design: method as in PMID 21936542; settings: molecular level; cited from earlier work
[4] = biological target: FGFR1 (Homo sapiens, UniProt P11362); experiment: ELISA kinase assay (FGFR1 enzymatic assay); assay type: biochemical
Experimental: The effects of compounds on the activities of FGFR1 kinases were determined using enzyme-linked immunosorbent assays (ELISAs) with purified recombinant proteins. Briefly, 20 μg/mL poly (Glu, Tyr)4:1 (Sigma, St. Louis, MO, USA) was pre-coated in 96-well plates as a substrate. A 50-μL aliquot of 10 μmol/L ATP solution diluted in kinase reaction buffer (50 mmol/L HEPES [pH 7.4], 50 mmol/L MgCl2, 0.5 mmol/L MnCl2, 0.2 mmol/L Na3VO4, and 1 mmol/L DTT) was added to each well; 1 μL of various concentrations of compounds diluted in 1% DMSO (v/v) (Sigma) were then added to each reaction well. DMSO (1%, v/v) was used as the negative control. The kinase reaction was initiated by the addition of purified tyrosine kinase proteins diluted in 49 μL of kinase reaction buffer. After incubation for 60 min at 37 °C, the plate was washed three times with phosphate-buffered saline (PBS) containing 0.1% Tween 20 (T-PBS). Anti-phosphotyrosine (PY99) antibody (100 μL; 1:500, diluted in 5 mg/mL BSA T-PBS) was then added. After a 30-min incubation at 37 °C, the plate was washed three times, and 100 μL horseradish peroxidase-conjugated goat anti-mouse IgG (1:2000, diluted in 5 mg/mL BSA T-PBS) was added. The plate was then incubated at 37 °C for 30 min and washed 3 times. A 100-μL aliquot of a solution containing 0.03% H2O2 and 2 mg/mL o-phenylenediamine in 0.1 mol/L citrate buffer (pH 5.5) was added. The reaction was terminated by the addition of 50 μL of 2 mol/L H2SO4 as the color changed, and the plate was analyzed using a multi-well spectrophotometer (SpectraMAX 190, Molecular Devices, Palo Alto, CA, USA) at 490 nm. […] The IC50 values were calculated from the inhibition curves in two separate experiments.

[5] = system: tumors harboring FGFR signaling aberrations; settings: phase I trial, patients with tumors harboring FGFR signaling aberrations; cited from earlier work

Sequence of FGFR1 (P11362 22-822): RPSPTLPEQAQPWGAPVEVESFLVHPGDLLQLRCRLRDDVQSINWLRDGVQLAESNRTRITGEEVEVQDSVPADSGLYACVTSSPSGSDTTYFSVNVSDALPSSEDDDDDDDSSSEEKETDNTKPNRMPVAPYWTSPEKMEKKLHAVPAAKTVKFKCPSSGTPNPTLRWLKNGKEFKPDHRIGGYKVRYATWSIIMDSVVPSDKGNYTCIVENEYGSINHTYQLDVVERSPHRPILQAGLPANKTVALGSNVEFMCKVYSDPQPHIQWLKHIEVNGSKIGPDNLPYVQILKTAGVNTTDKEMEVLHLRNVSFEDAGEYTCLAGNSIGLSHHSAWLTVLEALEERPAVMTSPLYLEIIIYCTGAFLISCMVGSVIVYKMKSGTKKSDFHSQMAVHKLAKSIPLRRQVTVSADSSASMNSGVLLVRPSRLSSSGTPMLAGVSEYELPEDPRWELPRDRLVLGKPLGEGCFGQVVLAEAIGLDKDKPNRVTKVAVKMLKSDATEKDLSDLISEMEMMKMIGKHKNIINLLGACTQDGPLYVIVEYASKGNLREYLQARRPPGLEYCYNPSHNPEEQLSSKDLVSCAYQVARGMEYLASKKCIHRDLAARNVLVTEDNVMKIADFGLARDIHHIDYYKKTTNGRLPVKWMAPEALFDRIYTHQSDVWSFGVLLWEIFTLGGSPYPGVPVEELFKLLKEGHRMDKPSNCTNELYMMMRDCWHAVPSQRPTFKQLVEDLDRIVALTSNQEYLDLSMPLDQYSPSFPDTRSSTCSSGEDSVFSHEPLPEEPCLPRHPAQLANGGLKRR

| Compound | IC50 [1] [nM] | IC50 [2] [nM] | IC50 [3] [nM] | Enzyme Inhibition (%) ([4]; 0.1 μmol/L compound) | Enzyme Inhibition (%) ([4]; 1 μmol/L compound) | on-target activity observed in patients [5] |
| --- | --- | --- | --- | --- | --- | --- |
| CCN1CCN(c2ccc(Nc3cc(N(C)C(=O)Nc4c(Cl)c(OC)cc(OC)c4Cl)ncn3)cc2)CC1 [NVP-BGJ398, 3-(2,6-dichloro-3,5-dimethoxy-phenyl)-1-{6-[4-(4-ethyl-piperazin-1-yl)-phenylamino]-pyrimidin-4-yl}-1-methyl-urea] | 1.4 | […] | […] | – | – | – |
| AZD4547 [reference compound] | – | – | – | 93.2 | 94.3 | five of 20 |
